Assays:
[1] = target: SARS-CoV-2 Main Protease (SARS-CoV-2) (UniProt P0DTD1)
Experimental: Compounds were seeded into assay-ready plates (Greiner 384 low volume, cat 784900) using an Echo 555 acoustic dispenser, and DMSO was back-filled for a uniform concentration in assay plates (DMSO concentration maximum 1%) Screening assays were performed in duplicate at 20µM and 50µM. […] Dose response assays were performed in 12 point dilutions of 2-fold, typically beginning at 100µM. […] Reagents for Mpro assay were dispensed into the assay plate in 10µl volumes for a final volume of 20µL.
Mpro was pre-incubated for 15 minutes at room temperature with compound before addition of substrate and a further 30 minute incubation. Protease reaction was measured in a BMG Pherastar FS with a 480/520 ex/em filter set. Raw data was mapped and normalized to high (Protease with DMSO) and low (No Protease) controls using Genedata Screener software.

[2] = target: SARS-CoV-2 Main Protease (SARS-CoV-2) (UniProt P0DTD1); conditions: for inhibition: 50.0 µM

Cc1cccc(C)c1NC(=O)CN1C(=O)C(=O)c2ccccc21
inhibition ([1]; 20.0 µM): -5.56% | inhibition ([1]; 50.0 µM): -2.09% | inhibition [2]: 0%

O=[N+]([O-])c1cnc(Sc2nnc(-c3ccco3)n2-c2ccc(OCc3ccccc3)cc2)s1
inhibition ([1]; 20.0 µM): 31.8% | inhibition ([1]; 50.0 µM): 94.4% | IC50 [2]: 0.66 µM

C[C@@H]1CS/C(=N\NC(=O)C(=O)C(NC(=O)C2CCCCCC2)C2CCOCC2)N1C (stereo in doubt)
inhibition ([1]; 50.0 µM): 2.64% | inhibition [2]: 21%

C=CC(=O)N1CCN(Cc2ccc(F)cc2)CC1
inhibition ([1]; 20.0 µM): 7.92% | inhibition ([1]; 50.0 µM): 11.4% | inhibition [2]: 0%

CC(=O)N1CCN(CC(=O)Nc2cncc3ccccc23)CC1
IC50 [1]: 71.7 µM | IC50 [2]: 72.5 µM | inhibition [2]: 42.4%

COC(=O)c1c(C)n(S(C)(=O)=O)c2ccc(N(C(=O)c3ccco3)S(C)(=O)=O)cc12
inhibition ([1]; 20.0 µM): 47.7% | inhibition ([1]; 50.0 µM): 97.8% | IC50 [2]: 0.335 µM

CN(CCC(N)=O)C(=O)C(=O)N1Cc2ccccc2C(c2ccccc2)C1 (stereo unspecified)
inhibition ([1]; 20.0 µM): -0.756% | inhibition ([1]; 50.0 µM): -0.803% | inhibition [2]: 0%

c1ccc(-c2cc(Sc3nnc(-c4cccs4)o3)n3ncnc3n2)cc1
inhibition ([1]; 20.0 µM): 47.1% | inhibition ([1]; 50.0 µM): 96.7% | IC50 [2]: 0.152 µM

CC(C)Cn1cc(NC(=O)NCCc2ccc(Cl)cc2)c2ccccc2c1=O
inhibition ([1]; 20.0 µM): 22.5% | inhibition ([1]; 50.0 µM): -1.58% | IC50 [2]: 95.9 µM

Cc1ccc(S(=O)(=O)N2CCC(NC(=O)N(C)Cc3cc(C)on3)CC2)cc1
inhibition ([1]; 20.0 µM): -1.1% | inhibition ([1]; 50.0 µM): 2.6% | inhibition [2]: 0%

Cc1cc(Cl)cc(CC2CCN(C(=O)CCl)CC2)c1
inhibition ([1]; 20.0 µM): 95.1% | inhibition ([1]; 50.0 µM): 98.3% | IC50 [2]: 1.24 µM | inhibition [2]: 100%

COc1cc(OC)cc(Oc2ccc(CNC(=O)Cn3nnc4ccccc43)cc2)c1
inhibition ([1]; 20.0 µM): 4.58% | inhibition ([1]; 50.0 µM): 17.3% | inhibition [2]: 0%

CC(C(=O)Nc1cnccc1O)c1ccccc1 (stereo unspecified)
inhibition ([1]; 20.0 µM): 0.187% | inhibition ([1]; 50.0 µM): 0.74% | inhibition [2]: 0%

CC(C)n1c(NC(=O)C2CCOc3ccccc32)nc2ccccc21 (stereo unspecified)
inhibition ([1]; 20.0 µM): 27.9% | inhibition ([1]; 50.0 µM): -2.12% | inhibition [2]: 8.85%

O=C(Cc1ccc(Cl)c(Cl)c1)Nc1cncc2ccccc12
IC50 [1]: 0.261 µM | IC50 [2]: 0.132 µM

O=C(O)[C@@H](c1ccccc1)N1Cc2ccccc2C1=O (stereo in doubt)
inhibition ([1]; 20.0 µM): 96.3% | inhibition ([1]; 50.0 µM): 99.4% | IC50 [2]: 1.16 µM

O=C(Nc1ccc([N+](=O)[O-])cc1Cl)c1cc(Cl)ccc1O
inhibition ([1]; 50.0 µM): -22.8% | inhibition [2]: 21%

Cc1cccc(COC(=O)c2cccc3c2NC(=O)C3=O)c1
inhibition ([1]; 20.0 µM): -1.1% | inhibition ([1]; 50.0 µM): 0.0384% | IC50 [2]: 17.3 µM | inhibition [2]: 83.7%

CCOC(=O)c1cc(-c2ccccc2)sc1NC(=O)Cc1csc(-c2ccccc2)n1
inhibition ([1]; 20.0 µM): 91.8% | inhibition ([1]; 50.0 µM): 97.9% | IC50 [2]: 2.69 µM

COC(=O)c1c(C)nn(C(=O)c2cccs2)c1-c1snnc1C
inhibition ([1]; 20.0 µM): 35% | inhibition ([1]; 50.0 µM): 77% | IC50 [2]: 0.522 µM

CN1CCN(C(=O)Cc2c[nH]c3ncc(C(=O)NCCc4c[nH]c5ccc(F)cc45)cc23)CC1
inhibition ([1]; 20.0 µM): -1.5% | inhibition ([1]; 50.0 µM): 7.57% | inhibition [2]: 8.74%

CC(C)(C)NC(=O)CN1C(=O)C(=O)c2cccc(Br)c21
inhibition ([1]; 20.0 µM): -2.41% | inhibition ([1]; 50.0 µM): 1.28% | inhibition [2]: 0%

CCN(Cc1cccc(-c2ccncc2)c1)C(=O)Cn1nnc2ccccc21
inhibition ([1]; 20.0 µM): 3.37% | inhibition ([1]; 50.0 µM): 15.6% | inhibition [2]: 0%

CCOC(=O)c1c(C)n(S(C)(=O)=O)c2ccc(N(C(=O)c3ccco3)S(C)(=O)=O)cc12
inhibition ([1]; 20.0 µM): 67.5% | inhibition ([1]; 50.0 µM): 98.6% | IC50 [2]: 0.147 µM

Nc1ncc(S(=O)(=O)c2ccc(Cl)cc2)c(N)n1
inhibition ([1]; 50.0 µM): -22.1% | inhibition [2]: 0%

O=C1Nc2cc(N3CCCC3)ccc2C1=O
inhibition ([1]; 20.0 µM): 7.46% | inhibition ([1]; 50.0 µM): 37.3% | inhibition [2]: 0%

COc1ccccc1OCCN1C(=O)C(=O)c2cc(Br)cc(C)c21
inhibition ([1]; 20.0 µM): -2.64% | inhibition ([1]; 50.0 µM): -0.707% | inhibition [2]: 48.1%

Cc1nnc(NC(=O)C2COc3ccc(Cl)cc32)n1C1CC1 (stereo unspecified)
inhibition ([1]; 20.0 µM): -63.2% | inhibition ([1]; 50.0 µM): -2.41% | inhibition [2]: 0%

COc1cccc(CNC(=O)N2CCN(C(=O)N3CCCCC3)CC2)c1
inhibition ([1]; 20.0 µM): -3.31% | inhibition ([1]; 50.0 µM): -0.332% | inhibition [2]: 0%

CCOC(=O)c1ccc(NC(=O)CC2SC(=O)N(c3ccccc3)C2=O)cc1 (stereo unspecified)
inhibition ([1]; 20.0 µM): 79% | inhibition ([1]; 50.0 µM): 80.7% | IC50 [2]: 0.635 µM

O=C(Cc1cccc(Cl)c1)Nc1cccnc1
inhibition ([1]; 20.0 µM): 24.1% | inhibition ([1]; 50.0 µM): 40.9% | inhibition [2]: 52.4%

O=C(Cc1cncc2ccccc12)N1CCOc2ccc(Cl)cc21
IC50 [2]: 3.66 µM

C/C=C1\C(C2(C)CCCC(C)(C)C2)=CCC2C1[C@@H](OC(C)=O)O[C@H]2OC(C)=O (stereo in doubt)
inhibition [2]: 0%

Cc1ccncc1NC(=O)Cc1cc(Cl)cc(NC2CC2C(F)(F)F)c1 (stereo unspecified)
IC50 [2]: 19.7 µM

O=C(Cc1cccc(Cl)c1)N[C@H]1CCNC1=O (stereo in doubt)
inhibition [2]: 0%

O=C(Nc1cncc2ccccc12)C1CCCc2ccc(Cl)cc21 (stereo unspecified)
IC50 [2]: 0.289 µM

O=C1OC(c2cccs2)=N/C1=C\c1ccc(N2CCOCC2)s1
IC50 [2]: 0.706 µM | inhibition [2]: 91.7%

CN(C)c1ccc(N(Cc2cccc(Cl)c2)C(=O)Cn2nnc3ccccc32)cc1
IC50 [2]: 0.391 µM

O=C(Cn1nnc2ccccc21)N(Cc1ccccc1)c1ccc(N2CCOCC2)cc1
IC50 [2]: 18.2 µM

CC(C)(C)c1ccc(N(C(=O)c2ccco2)[C@H](C(=O)NCCc2cccc(F)c2)c2cccnc2)cc1
inhibition [2]: 100%

— the COVID Moonshot data (paper PMC11187573), “Identification of SARS-CoV-2 Mpro inhibitors through deep reinforcement learning for de novo drug design and computational chemistry approaches” (RSC Medicinal Chemistry, 2024)
